Test results: ChEMBL document CHEMBL6092203, “Discovery of Novel PROTAC-Based HPK1 Degraders with High Potency and Selectivity for Cancer Immunotherapy” (J Med Chem, 2024)
The source made the active and inactive calls. No cut-off for these calls is given here.

Columns and labels:
[1] = Volume of distribution at steady state in Beagle dog at 1 mg/kg, iv measured upto 24 hrs by LC-MS analysis; format: ADME, organism-based, Canis lupus familiaris; details: in vivo
MC-38 [2] = assay: Antitumor activity against mouse MC38 cells implanted in C57BL/6J mouse assessed as tumor weight inhibition rate at 0.5 mg/kg, po BID measured after 4 weeks; format: functional; design: scale not given: the % may be the effect or the level left
[3] = Plasma protein binding in monkey at 10 uM incubated for 6 hrs by equilibrium dialysis based LC-MS/MS method; format: ADME, cell-free, Macaca mulatta; details: rhesus monkey, read-out: PPB (converted)
MC-38 [4] = assay: Antitumor activity against mouse MC38 cells implanted in C57BL/6J mouse assessed as tumor weight inhibition rate at 100 mg/kg, po QD administered for 4 weeks; format: functional; design: scale not given: the % may be the effect or the level left
[5] = AUCinfinity in Beagle dog at 5 mg/kg, po measured upto 24 hrs by LC-MS analysis; format: ADME, organism-based, Canis lupus familiaris; details: in vivo
in vivo [6] = details: beagle, dog, po, 5 mg/kg
Description: Oral bioavailability in Beagle dog at 5 mg/kg measured upto 24 hrs by LC-MS analysis

[7] = Initial plasma concentration in C57BL/6J mouse at 2 mg/kg, iv measured upto 24 hrs by LC-MS analysis; format: ADME, organism-based
MC-38 [8] = assay: Synergistic antitumor activity against mouse MC38 cells implanted in C57BL/6J mouse assessed as reduction in tumor weight at 0.5 mg/kg, po bid administered for 3 to 4 weeks in presence of 5 mg/kg anti-PD1 and measured twice a week (reference value: 1.79 +/- 0.24 g); format: functional; details: time 3-4 weeks
[9] = biological target: T1, Protein cereblon/Mitogen-activated protein kinase kinase kinase kinase 1 (Homo sapiens, UniProt Q92918+Q96SW2); assay: PROTAC activity at CRBN/HPK1 in human Jurkat cells assessed as maximum degradation incubated for 24 hrs by Western blotting analysis; format: cell-based
in vitro [10] = details: human, liver microsomes
[11] = Initial plasma concentration in Beagle dog at 1 mg/kg, iv measured upto 24 hrs by LC-MS analysis; format: ADME, organism-based, Canis lupus familiaris; details: in vivo
[12] = Half-life in Sprague-Dawley rat at 2 mg/kg, iv measured upto 24 hrs by LC-MS analysis; details: in vivo
in vitro [13] = details: rat, hepatocytes
[14] = Toxicity in Sprague-Dawley rat assessed as efficacy dose exposure measured after 14 days; details: in vivo
MC-38 [15] = assay: Synergistic antitumor activity against mouse MC38 cells implanted in C57BL/6J mouse assessed as tumor growth inhibition at 1 mg/kg, po bid measured after 4 weeks in presence of 5 mg/kg anti-PD1 and measured twice a week; format: functional; details: MC-38, 672 h, read-out: TGI
[16] = Drug distribution in rat thyroid gland measured after 0.5 to 6 hrs; format: ADME, tissue-based; details: in vivo, time 0.5-6 hrs
[17] = AUCinfinity in Sprague-Dawley rat at 2 mg/kg, iv measured upto 24 hrs by LC-MS analysis; format: ADME, organism-based; details: in vivo
[18] = biological target: T1, Protein cereblon/Mitogen-activated protein kinase kinase kinase kinase 1; assay: PROTAC activity at CRBN/HPK1 in human Jurkat cells assessed as HPK1 degradation at 1 uM after 4 hrs by Western blotting analysis; format: cell-based
[19] = Drug distribution in rat brain measured after 2 hrs; format: ADME, tissue-based; details: in vivo
[20] = Toxicity in Sprague-Dawley rat assessed as no observable adverse effect level exposure measured after 14 days; details: in vivo, 336 h, time 14 day
in vitro [21] = details: rhesus monkey, liver microsomes
[22] = Initial plasma concentration in Sprague-Dawley rat at 2 mg/kg, iv measured upto 24 hrs by LC-MS analysis; format: ADME, organism-based
in vivo [23] = details: female, Sprague-Dawley, rat, po, 30 mg/kg
in vivo [24] = details: male, Sprague-Dawley, rat, po, 2 mg/kg
[25] = Drug distribution in rat heart measured after 0.5 to 6 hrs; format: ADME, tissue-based; details: in vivo, time 0.5-6 hrs
in vitro [26] = details: dog, liver microsomes
Cytochrome P450 3A4 = Cytochrome P450 3A4 (Homo sapiens, UniProt P08684); assay: Inhibition of CYP3A4 in human liver microsomes using midazolam as substrate in presence of NADPH; format: ADME, Microsome
[27] = biological target: T1, Protein cereblon/Mitogen-activated protein kinase kinase kinase kinase 1; assay: PROTAC activity at CRBN/HPK1 in human Jurkat cells assessed as HPK1 degradation at 300 nM measured after 24 hrs by Western blotting analysis; format: cell-based
[28] = Induction of p-SLP76 at Ser376 protein degradation in human Jurkat cells incubated for 24 hrs by Western blotting analysis; format: cell-based
Cytochrome P450 2B6 = biological target: T2, Cytochrome P450 2B6 (Homo sapiens, UniProt P20813); assay: Inhibition of CYP2B6 in human liver microsomes using bupropion as substrate in presence of NADPH; format: ADME, Microsome
T2 sequence (P20813 whole entry): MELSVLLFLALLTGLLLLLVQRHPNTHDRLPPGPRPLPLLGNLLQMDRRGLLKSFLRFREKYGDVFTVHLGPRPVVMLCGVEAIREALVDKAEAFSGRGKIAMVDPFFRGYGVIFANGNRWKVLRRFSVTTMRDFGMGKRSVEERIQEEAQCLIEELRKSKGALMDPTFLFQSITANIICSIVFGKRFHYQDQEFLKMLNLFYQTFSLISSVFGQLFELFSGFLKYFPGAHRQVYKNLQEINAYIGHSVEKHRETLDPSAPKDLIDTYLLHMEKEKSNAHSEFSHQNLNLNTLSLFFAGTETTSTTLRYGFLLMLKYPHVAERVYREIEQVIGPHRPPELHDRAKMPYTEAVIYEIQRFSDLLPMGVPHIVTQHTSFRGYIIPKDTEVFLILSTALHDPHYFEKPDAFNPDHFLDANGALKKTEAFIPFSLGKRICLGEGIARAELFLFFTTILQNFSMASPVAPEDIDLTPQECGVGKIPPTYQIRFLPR

MC-38 [29] = assay: Synergistic antitumor activity against mouse MC38 cells implanted in C57BL/6J mouse assessed as reduction in tumor volume at 1 mg/kg, po bid administered for 3 to 4 weeks in presence of 5 mg/kg anti-PD1 and measured twice a week (reference value: 1549.22 +/- 217.92 mm3); format: functional; details: time 3-4 weeks
[30] = Effect on action potential in rabbit purkinje fibers; format: toxicity, tissue-based, Oryctolagus cuniculus, Purkinje fiber
in vivo [31] = details: C57BL/6J, mouse, po, 10 mg/kg
[32] = Tmax in male Sprague-Dawley rat at 30 mg/kg/day, po measured at day 1; format: ADME, organism-based; details: in vivo, time 1 day
[33] = AUCinfinity in C57BL/6J mouse at 10 mg/kg, po measured upto 24 hrs by LC-MS analysis; format: ADME, organism-based; details: in vivo
[34] = Tmax in male Sprague-Dawley rat at 2 mg/kg/day, po measured at day 14; format: ADME, organism-based; details: in vivo, time 14 day
in vivo [35] = details: male, Sprague-Dawley, rat, po, 100 mg/kg
Jurkat = assay: Induction of GLK degradation in human Jurkat cells at 1 to 1000 nM incubated for 24 hrs by Western blotting analysis; format: cell-based; details: dose 1-1000 nM

T1 sequence (Q92918 whole entry, looked up): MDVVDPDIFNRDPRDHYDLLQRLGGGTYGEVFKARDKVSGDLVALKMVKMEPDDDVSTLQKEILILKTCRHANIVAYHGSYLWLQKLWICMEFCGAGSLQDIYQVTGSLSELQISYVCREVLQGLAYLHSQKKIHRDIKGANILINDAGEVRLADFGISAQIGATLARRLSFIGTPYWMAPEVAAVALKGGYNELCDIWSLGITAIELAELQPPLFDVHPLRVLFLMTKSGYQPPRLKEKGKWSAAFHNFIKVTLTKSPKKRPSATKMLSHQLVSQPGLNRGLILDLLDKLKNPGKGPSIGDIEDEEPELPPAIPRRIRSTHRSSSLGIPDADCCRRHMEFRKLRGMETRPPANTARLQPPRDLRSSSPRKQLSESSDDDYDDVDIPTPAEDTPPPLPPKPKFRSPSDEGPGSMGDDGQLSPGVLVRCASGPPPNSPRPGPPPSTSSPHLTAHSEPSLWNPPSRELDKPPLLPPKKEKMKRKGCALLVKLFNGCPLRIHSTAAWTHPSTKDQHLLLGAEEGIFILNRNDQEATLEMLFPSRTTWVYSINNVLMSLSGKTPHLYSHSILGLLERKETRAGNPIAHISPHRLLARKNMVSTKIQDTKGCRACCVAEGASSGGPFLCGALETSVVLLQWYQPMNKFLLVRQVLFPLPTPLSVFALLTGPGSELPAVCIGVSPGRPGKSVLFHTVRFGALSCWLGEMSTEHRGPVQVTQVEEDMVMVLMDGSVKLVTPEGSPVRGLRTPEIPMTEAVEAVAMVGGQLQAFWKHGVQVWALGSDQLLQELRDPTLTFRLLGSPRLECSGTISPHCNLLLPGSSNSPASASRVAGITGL
T1 sequence (Q96SW2 whole entry, looked up): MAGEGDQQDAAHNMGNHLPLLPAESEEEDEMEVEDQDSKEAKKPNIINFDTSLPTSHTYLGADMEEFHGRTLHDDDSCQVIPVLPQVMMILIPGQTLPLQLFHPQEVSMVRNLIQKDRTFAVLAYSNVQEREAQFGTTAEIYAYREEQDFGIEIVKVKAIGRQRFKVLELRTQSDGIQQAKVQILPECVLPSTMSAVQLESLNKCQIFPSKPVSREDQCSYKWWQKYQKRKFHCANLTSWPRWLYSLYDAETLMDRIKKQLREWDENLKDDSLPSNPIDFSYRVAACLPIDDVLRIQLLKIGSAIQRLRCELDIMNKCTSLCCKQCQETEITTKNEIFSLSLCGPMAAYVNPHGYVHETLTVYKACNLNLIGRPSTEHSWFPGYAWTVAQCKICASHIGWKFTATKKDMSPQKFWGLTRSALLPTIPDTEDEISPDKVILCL
Cytochrome P450 3A4, sequence (P08684 whole entry): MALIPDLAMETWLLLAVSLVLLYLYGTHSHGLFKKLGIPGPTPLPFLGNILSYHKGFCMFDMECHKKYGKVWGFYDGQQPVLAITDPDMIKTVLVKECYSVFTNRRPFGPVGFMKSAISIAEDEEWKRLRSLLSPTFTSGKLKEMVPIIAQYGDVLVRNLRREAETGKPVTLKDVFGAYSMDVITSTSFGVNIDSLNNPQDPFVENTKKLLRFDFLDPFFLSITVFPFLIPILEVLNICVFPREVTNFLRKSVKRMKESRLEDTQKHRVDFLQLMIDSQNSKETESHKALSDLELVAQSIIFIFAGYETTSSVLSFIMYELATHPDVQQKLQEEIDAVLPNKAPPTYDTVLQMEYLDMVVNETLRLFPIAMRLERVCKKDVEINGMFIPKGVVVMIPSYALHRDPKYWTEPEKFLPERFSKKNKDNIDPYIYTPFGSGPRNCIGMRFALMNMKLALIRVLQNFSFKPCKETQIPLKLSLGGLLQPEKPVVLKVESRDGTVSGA

O=C1CCN(c2cc(C(=O)N3CCC(CC4CCN(c5ccc(-c6cnc7[nH]cc(-c8cnn(CC(F)(F)F)c8)c7n6)cn5)CC4)CC3)ccc2Cl)C(=O)N1
Vdss [1]: 0.386 L/kg
Activity (MC-38 [2]): 42.22%
fraction unbound at 6 h, 10 µM [3]: 0.0002
Activity (MC-38 [4]): 48.76%
AUC(0-inf) [5]: 796 ng·h/mL
bioavailability at 24 h (in vivo [6]): 16%
C0 at 24 h [7]: 1590 ng/mL
Activity (MC-38 [8]): 0.24 g
Emax [9]: 94%
half-life at 0.75 h, 1 µM (in vitro [10]): > 5 h
C0 [11]: 794 ng/mL
half-life at 24 h [12]: 2.86 h
half-life at 1.5 h, 1 µM (in vitro [13]): 3.9 h
AUC at 336 h [14]: 291 ng·h/mL
inhibition in vivo at 1 mg/kg (MC-38 [15]): 78.2%
Drug uptake [16]: Active
AUC(0-inf) [17]: 8220 ng·h/mL
Activity [18]: 55.6%
Drug uptake [19]: Active
NOAEL [20]: 136000 ng·h/mL
half-life at 0.75 h, 1 µM (in vitro [21]): 0.607 h
C0 at 24 h [22]: 3380 ng/mL
AUC at 336 h (in vivo [23]): 46000 ng·h/mL
Cmax at 336 h (in vivo [24]): 64.2 ng/mL
Drug uptake [25]: Active
half-life at 0.75 h, 1 µM (in vitro [26]): 1.14 h
IC50 (Cytochrome P450 3A4): > 10 µM
Activity [27]: Active
DC50 [28]: 0.00563 µM
IC50 (Cytochrome P450 2B6): > 10 µM
Activity (MC-38 [29]): 338.13 mm3
Activity [30]: Non-toxic
Cmax at 24 h (in vivo [31]): 3180 ng/mL
Tmax [32]: 8 h
AUC(0-inf) [33]: 12100 ng·h/mL
Tmax [34]: 10 h
Cmax at 24 h (in vivo [35]): 8620 ng/mL
Activity (Jurkat): inactive
